Laboratory results as given in US20110275672A1, “METHODS FOR TREATING CANCERS USING POLYMORPHIC FORMS OF 3-(4-AMINO-1-OXO-1,3 DIHYDRO-ISOINDOL-2-YL)-PIPERIDINE-2,6-DIONE” (Celgene Corporation, priority 2003, published 2011).
Where “and” joins values, the source holds several entries; their conditions need not be identical. Equal values may be shown once. Read-outs that look alike come from different tables or passages of the source. Blank lines part the entries; values can stand above or below the compound they belong to.

How the values were obtained:
IL-6 = assay: LPS-stimulated production of IL-6 by PBMC; format: cell-based
[1] = Phase 1 studies in refractory or relapsed multiple myeloma patients: pharmacokinetics; format: in vivo
Experimental: (§1) Patients started 3-(4-amino-1-oxo-1,3-dihydro-isoindol-2-yl) -piperidine -2,6-dione treatment at 5 mg/day with subsequent escalation to 10, 25, and 50 mg/day. […] Patients were evaluated for adverse events at each visit and the severity of these events was graded according to the National Cancer Institute (NCI) Common Toxicity Criteria. Patients were discontinued if they experienced DLT (Grade 3 or greater non-hematological, or Grade 4 hematological toxicity).
Blood and urine samples were collected for analysis of pharmacokinetic parameters on Days 1 and 28. Blood samples were collected according to the following sampling schedule: pre-dose, 0.25, 0.5, 0.75, 1, 1.5, 2, 2.5, 3, 4, 6, 8, 10, 12, 18, and 24 hours post-dose. In addition, a blood sample was collected at each weekly clinic visit for 3-(4-amino-1-oxo-1,3-dihydro-isoindol-2-yl)-piperidine-2,6-dione determination. Total urine was collected and pooled according to the following time intervals post-dose: 0 to 4, 4 to 8, 8 to 12, and 12 to 24 hours. […] Bone marrow aspirations and/or tissue biopsy are also performed at Months 3, 6 and 12 if a patient's paraprotein serum concentration or 24-hour urine protein excretion declined to the next lower level, based on best response criteria.

[2] = Cardiovascular and respiratory function in anesthetized dogs; format: in vivo, Beagle dogs
From the text: Two groups of Beagle dogs (2/sex/group) are used.

[3] = Phase 1 studies in refractory or relapsed multiple myeloma patients: dose limiting toxicity; format: in vivo
Experimental: as §1
The second cohort of 3 patients subsequently commenced therapy at 10 mg/day.

TNF-α production [4] = assay: Inhibition of TNF-α production following LPS-stimulation of human PBMC; format: cell-based
TNF-α production [5] = details: cited from earlier work; for IC50: human whole blood, LPS, read-out: IC50 for inhibiting production of TNF-α following LPS-stimulation of human whole blood
IFN-γ = assay: Augmentation of IFN-γ production following TCR activation of T-cells; format: cell-based
Hs Sultan cells = assay: Inhibition of MM cell proliferation, [3H]-thymidine uptake, Hs Sultan; format: cell-based
Experimental: (§2) The uptake of [^3H]-thymidine by different MM cell lines (MM.1S, Hs Sultan, U266 and RPMI-8226) was measured as an indicator of the cell proliferation.
(§3) Uptake [^3H]-thymidine by different MM cell lines (MM.1S, Hs Sultan, U266 and RPMI-8226) was measured as an indicator of cell proliferation. Cells were incubated in the presence of compounds for 48 hours; [^3H]-thymidine was included for the last 8 hours of the incubation period.

IL-2 = assay: Augmentation of IL-2 production following TCR activation of PBMC; format: cell-based
T-cells = assay: Stimulation of T-cell proliferation following primary induction by T-cell receptor (TCR) activation; format: cell-based
[6] = Phase 1 study in patients with solid tumors: dose limiting toxicity; format: in vivo; details: initial group of 20 patients with solid tumors, 5 escalated to 50 mg/day over 4 weeks
Experimental: Patients who, experienced clinical benefit were permitted to continue on treatment as Named Patients.
The study initially enrolled 20 patients and was subsequently amended to enroll 16 additional patients (adrenal carcinoma, NSCLC, malignant mesothelioma, breast cancer, metastatic melanoma (8), renal cell cancer (4)) at a higher dose. The 16 additional patients were given weekly escalating doses of 25 mg/day, 50 mg/day, 75 mg/day, 100 mg/day, 125 mg/day, and 150 mg/day over a 6-week period with continuing treatment for an additional six weeks.
The study design dictates that at least 3 patients must be enrolled at a dose level and have completed 28 days of treatment prior to enrollment of patients at the next higher dose level. […] Patients will be escalated to 10, 20, 25, and 30 mg/day provided there is no toxicity.
If, at any given dose level in either study, one out of three patients experiences toxicity, three additional patients must be treated at that particular dose. If, however, two out of six patients experience DLT, the MTD is judged to have been exceeded. No further dose escalations are to occur and additional patients are to be enrolled at the previous dose level. The dose of 3-(4-amino-l-oxo-1,3-dihydro-isoindol-2-yl)-piperidine-2,6-dione administered is escalated until the MTD is achieved or the maximum daily dose […] is reached.

TNF-α production [7] = details: human PBMC, cited from earlier work; for IC50: LPS, read-out: IC50 for inhibiting production of TNF-α following LPS-stimulation of PBMC
MM.1S cells = assay: Inhibition of MM cell proliferation, [3H]-thymidine uptake, MM.1S; format: cell-based; details: for IC50: Homo sapiens, MM1.S
Experimental: as §2, §3

[8] = LPS-stimulated production of IL-113 by PBMC; format: cell-based
IL-10 = assay: LPS-stimulated production of IL-10 by PBMC; format: cell-based
metastatic melanoma = assay: Treatment of metastatic melanoma patients; format: in vivo, human
Experimental: The dose was then increased every seven days to 10 mg/day, 25 mg/day, and 50 mg/day, respectively, for a total of four weeks on therapy.

[9] = Pharmacokinetics of Actimid in relapsed/refractory multiple myeloma patients; format: in vivo, human
Experimental: 6.5.1 Treatment of Relapsed Multiple Myeloma p 4-(Amino)-2-(2,6-dioxo(3-piperidyl))-isoindoline-1,3-dione (Actimid™) was administered to patients with relapsed/refractory multiple myeloma. The study was conducted in compliance with Good Clinical Practices. Patients were at least 18 years old, had been diagnosed with multiple myeloma (with paraprotein in serum and/or urine), and were considered refractory to treatment after at least two cycles of treatment, or have relapsed after two cycles of treatment.
Patients who have progressive disease, according to the Southwest Oncology Group (SWOG) criteria, on their prior regimen are considered treatment refractory. Relapse following remission is defined as >25% increase in M component from baseline levels; reappearance of the M paraprotein that had previously disappeared; or a definite increase in the size and number of lytic bone lesions recognized on radiographs. Patients may have had prior therapy with thalidomide, provided they were able to tolerate the treatment. A Zubrod performance status of 0 to 2 is required for all patients.
4-(Amino)-2-(2,6-dioxo(3-piperidyl))-isoindoline-1,3-dione is administered to patients at doses of 1, 2, 5, or 10 mg/day for up to four weeks; at each dose level, three patients are initially enrolled. Dosing occurs at approximately the same time each morning; all doses are administered in the fasted state (no eating for at least two hours prior to dosing and two hours after dosing). 4-(Amino)-2-(2,6-dioxo(3-piperidyl))-isoindoline-1,3-dione doses are administered in an ascending fashion such that patients in the first cohort receive the lowest dose of 4-(amino)-2-(2,6-dioxo(3-piperidyl))-isoindoline-1,3-dione (1 mg/day) and escalation to the next higher dose level occurs only following the establishment of safety and tolerability at the current dose. If one out of three patients at any dose level experience dose limiting toxicity (DLT), three additional patients are enrolled at that dose. If none of the three additional patients experience DLT, escalation to the next dose level occurs; dose escalations continue in a similar fashion until the MTD is established or the maximum daily dose (10 mg/day) is attained. However, if one of the three additional patients enrolled experiences DLT, the MTD has been reached. If two or more of the three additional patients enrolled experience DLT, the MTD is judged to have been exceeded and three additional patients are enrolled at the preceding dose level to confirm the MTD. Once the MTD has been identified, four additional patients are enrolled at that dose level so that a total of 10 patients is treated at the MTD.
Blood sampling for analysis of pharmacokinetic parameters is performed on Days 1 and 28 according to the following sampling schedule: pre-dose, 0.25, 0.5, 0.75, 1, 1.5, 2, 2.5, 3, 4, 6, 8, 10, 12, 18, and 24 hours post-dose. An additional blood sample is collected at each weekly visit for the determination of 4-(amino)-2-(2,6-dioxo(3-piperidyl))-isoindoline-1,3-dione levels. Total urine collections are also made with urine pooled according to the following time intervals post-dose: 0 to 4, 4 to 8, 8 to 12, and 12 to 24 hours. Safety assessments are made by monitoring adverse events, vital signs, ECGs, clinical laboratory evaluations (blood chemistry, hematology, lymphocyte phenotyping, and urinalysis), and physical examination at specific times during the study.

accumulation with multiple dosing ([1]; human, in vivo): no evidence of accumulation | half-live in patients, mean ([1]; human, in vivo): 8 h | half-live in patients, range ([1]; human, in vivo): up to 17 hours | plasma concentration profile ([1]; human, in vivo): double peaks were observed | clearance compared to healthy volunteers ([1]; multiple myeloma patients): lower | exposure (Cmax and AUC) compared to healthy male volunteers ([1]; multiple myeloma patients): slightly higher | IC50 (MM.1S cells; read-out: concentration resulting in 50% inhibition of cell proliferation, MM.1S cells, 48 hours, [3H]-thymidine last 8 hours): 0.4 µM
Structure (SMILES): Nc1cccc2c1CN(C1CCC(=O)NC1=O)C2=O (centres unmarked) [3-(4-amino-1-oxo-1,3-dihydro-isoindol-2-yl)-piperidine-2,6-dione]
LPS-stimulated production of IL-6 by PBMC (IL-6): dose-dependent inhibition | cardiovascular and respiratory changes compared to the vehicle control group ([2]; anesthetized Beagle dogs, all doses (2, 10, and 20 mg/kg), infusion through the jugular vein): minimal | increase in arterial blood pressure at higher doses ([2]; anesthetized dogs, higher doses (10, 20 mg/kg)): not seen at higher doses | duration of the increase in arterial blood pressure ([2]; anesthetized dogs, low dose): approximately 15 minutes | arterial blood pressure after small increase (from 94 mmHg) ([2]; anesthetized dogs, low dose (2 mg/kg), infusion): 101 mmHg | deviations in femoral blood flow, respiratory parameters, and Qtc interval ([2]; anesthetized dogs, common to control and treated groups): not considered treatment-related | dose limiting toxicity (DLT) ([3]; 5 mg/day for 28 days, first cohort of 3 patients): without any dose limiting toxicity | tolerability ([3]; 10 mg/day, second cohort of 3 patients): tolerated treatment well | LPS-stimulated production of TNF-α by PBMC (TNF-α production [4]): dose-dependent inhibition | IC50 for inhibiting production of TNF-α following LPS-stimulation of human whole blood (TNF-α production [5]): 0.1036 µg/mL | IC50 (TNF-α production [5]): ~0.48 µM | times more potent than thalidomide in augmenting the production of IFN-γ (IFN-γ): 50-100 times | IC50 (Hs Sultan cells; read-out: concentration resulting in 50% inhibition of cell proliferation, 48 hours, [3H]-thymidine last 8 hours): 1 µM | times more potent than thalidomide in augmenting the production of IL-2 (IL-2): 50-100 times | times more potent than thalidomide in stimulating the proliferation of T-cells (T-cells): 50-100 times | DLTs [6]: No DLTs were reported | IC50 (TNF-α production [7]): ~0.1 µM | IC50 for inhibiting production of TNF-α following LPS-stimulation of PBMC (TNF-α production [7]): 0.0259 µg/mL | LPS-stimulated production of IL-113 by PBMC [8]: dose-dependent inhibition | production of the anti-inflammatory cytokine IL-10 (IL-10): increased production | patients showing disease stabilization or a partial response (metastatic melanoma; first four weeks of treatment, 5 escalated weekly to 10, 25, 50 mg/day): Five of the 13 | duration of response (metastatic melanoma; metastatic melanoma patients): approximately six | tumor response in cutaneous and subcutaneous lesions (metastatic melanoma; metastatic melanoma patients): five | tumor response in liver (metastatic melanoma; metastatic melanoma patients): one | tumor response in lymph nodes (metastatic melanoma; metastatic melanoma patients): two

Structure (SMILES): O=C1CCC(N2C(=O)c3ccccc3C2=O)C(=O)N1 (centres unmarked) [thalidomide, reference compound]
inhibition of cell proliferation (Hs Sultan cells; concentrations up to 100 μm, 48 hours): 20% | IC50 (TNF-α production [7]): ~194 µM | IC50 for inhibiting production of TNF-α following LPS-stimulation of PBMC (TNF-α production [7]): 50.2 µg/mL | inhibition of cell proliferation (MM.1S cells; MM.1S cells, concentrations up to 100 μm, 48 hours): 15%

fold increase in AUC(01) with a 5-fold increase in dose ([9]; Day 1): 3.6 fold | fold increase in Cmax with a five-fold higher dose ([9]; Day 1): 3.2 fold | fold increase in AUC(01) with a 5-fold increase in dose ([9]; Week 4): 2.3 fold | fold increase in Cmax with a five-fold higher dose ([9]; Week 4): 2.2 fold | absorption ([9]; all dose levels, relapsed multiple myeloma patients): steadily absorbed | decline of plasma concentrations after reaching Cmax ([9]; human, in vivo): monophasic manner | median Tmax ([9]; human, in vivo): 3 to 4 h | CL/F ([9]; human, in vivo, 1 mg): 114.75 mL/min | CL/F ([9]; human, in vivo, 2 mg): 121.43 mL/min | CL/F ([9]; human, in vivo, 5 mg): 182.31 mL/min | t½ ([9]; human, in vivo, 5 mg): 6.5 h
Structure (SMILES): Nc1cccc2c1C(=O)N(C1CCC(=O)NC1=O)C2=O (centres unmarked) [Actimid, 4-(Amino)-2-(2,6-dioxo(3-piperidyl))-isoindoline-1,3-dione]
IC50 for inhibiting production of TNF-α following LPS-stimulation of human whole blood (TNF-α production [5]): 0.00683 µg/mL | IC50 (TNF-α production [5]): ~0.025 µM | IC50 (Hs Sultan cells; read-out: concentration achieving 50% inhibition of proliferation): 0.00273 µg/mL to 0.0273 µg/mL and 10 nM to 100 nM | IC50 (TNF-α production [7]): ~0.024 µM | IC50 for inhibiting production of TNF-α following LPS-stimulation of PBMC (TNF-α production [7]): 0.00655 µg/mL | IC50 (MM.1S cells; read-out: concentration achieving 50% inhibition of proliferation, MM.IS cells): 0.00273 µg/mL to 0.0273 µg/mL and 10 nM to 100 nM
